Columns and labels:
[1] = EIS of DOPC bilayer with K+/H+ gradient after Nigericin incorporation; assay type: physicochemical; settings: 20 μM from ethanol solution; cavities 150 mM K+, outside citrate buffer pH 4, H+ 10 mMol
Protocol: (§1) Gold microcavity electrodes were formed through the method described herein using electrodeposition of gold through a close packed array of polystyrene spheres (2.88 micron in diameter) after which the spheres where removed by sonication in THF for 30 minutes. The gold microcavity array was then modified with mercaptoethanol (ME) by placing the substrate in a 1 mM solution of ME, in ethanol, for 24 hours. Alternatively it is possible to selectively modify the top surface with mercaptonexanol before removal of the spheres and leave the cavities free of surface modification after sphere removal. This latter approach gives even greater reproducibility.
Nigericin is an antiporter of H+ and K+, Herein, the cavities where prefilled with 150 mM K+ before bilayer formation. Citrate buffer (at pH 4) was then added to the electrolyte to supply the system with H+(10 mMol) ions on the outside of the bilayer. The impedance of the DOPC bilayer was measured in the presence of this ionic gradient.

[2] = EIS of DOPC bilayer with K+/Na+ ion gradient after Valinomycin incorporation; assay type: physicochemical; settings: 20 μM from ethanol solution; cavities Tris KCl, contacting solution Tris NaCl
Protocol: as §1
After sonication a DOPC bilayer was formed over the micro-cavities using a combination of Langmuir-Blodgett and vesicle fusion as described above.
Electrochemical impedance spectra (EIS) of this bilayer were measured by placing the array in contact with Tris NaCl. This creates an ion gradient across the lipid bilayer. The bilayer, effectively insulates the pore from the external contacting solution but once Valinomycin is introduced this should cause K+ ions to flow from inside the cavities into the bulk solution (see schematic in FIG. 18). The impedance of the DOPC bilayer was measured in the presence of this ionic gradient. Valinomycin was then introduced into the cell by adding 20 μM from an ethanol solution. […]

[3] = for decrease in resistivity of DOPC bilayer: between 0 and 400 umol drug, PBS buffer pH 7.4 on both sides of the pore
Protocol: A gold microcavity electrode is first modified with 2-mercaptoethanol by immersing them in a 1 mM solution in ethanol overnight after which they are sonicated in Tris buffer for 30 munities to pre fill the cavities (in the gold electrode or substrate). A DOPC monolayer is then deposited onto the microcavity electrode using a Langmuir-Blödgett deposition of monolayer followed by DOPC disruption at this monolayer to form a bilayer.
Measurements are performed with a potential of 0 V and a frequency range of 0.01 Hz to 100000 Hz with a standard 3 electrode set up with an Ag/AgCl reference electrode. All experiments are performed in Tris NaCl buffer with the cell contained inside a Faraday cage.
Electrochemical Impedance Spectroscopy (EIS) is highly sensitive to changes in the bilayer and this sensitivity can be enhanced by using an electrochemical probe such as ferrocyanide in the contacting solution (i.e., solution contacting the outer surface of the array) or in applying an ionic gradient across the membrane by applying slightly different pH or ionic strength at the solution at each side of the membrane e.g., by pre-filling the cavities with a different ionic strength solution to that contacting solution which will operably be in contact with the top leaflet of the bilayer (i.e. away from the cavity). Within this context the inner membrane leaflet refers to the lipid layer closest to the cavities and the outer leaflet is that the lipid layer pointed away from the cavities and operably in contact with the contacting solution that is introduced into the inlet and out through the outlet of the microfluidic platform.
The experiment was carried out in PBS buffer at pH 7.4 at room temperature with cavities filled with same buffer solution. A microfluidic platform having an inlet and outlet (similar to the platform of FIG. 2) is used to introduce the ibuprofen to the bilayer.
The bilayers are stable to introduction of several volumes of buffer at the end of a study and we were able to monitor for reversibility of binding.

[4] = FLCS/FCS of labelled lipid diffusion in DOPC bilayer over buffer-filled PDMS cavity array after drug addition; assay type: physicochemical; settings: for impact on diffusion of the lipophilic BODIPY-HPC probe: PBS pH 7.4, 15 mins incubation, ibuprofen 4-200 μmol, diclofenac 4-800 μmol
Protocol: The lower dye concentration is required for FLCS experiments.
FLCS measurements were recorded over cavities as well as flat PDMS surfaces to obtain the autocorrelation functions for each surface. […] The autocorrelation curves obtained were fit to the 2-dimensional model described in equation 1 to obtain the lateral diffusion co-efficient of the lipids in the bilayer.
where, G(τ) is the autocorrelation function, N is the average number of fluorescent molecules present in the confocal volume, τi is the characteristic residence time, and α is the anomalous parameter which reflects the extent of deviation of diffusion from normal or Brownian motion where α=1, i is the index of the components. The lateral diffusion coefficient, DL, can be obtained as DL=ω^2/4τi. In this equation, ω is the radius of the laser beam used. To determine ω for each excitation, a reference solution of free dye was used for which the diffusion coefficient is known.
The probe is BODIPY labelled DOPE at 1% mol/mol lipid.
Monitoring the diffusion of each probe permitted assessment of interaction of the drug with the membrane and where this interactions occurred; i.e. did it bind to the interface or intercalate in the bilayer? Only a single probe is necessary in most instances, however depending on the sophistication of the FCS instrument two labels can be used in a single two colour experiment or they can be applied in separate experiments to yield detailed insights into the location of the drug at the membrane.

[5] = Electrorelease of CD from cavity to cholesterol containing bilayer, bilayer resistance; assay type: physicochemical
From the text: As an example. Mercaptoferrocene was self-assembled only at the inner cavity surface and a blocking thiolated alcohol (mercaptoethanol or mercaptohexanol) was assembled at the top surface of the array, by modification of the top surface of the array prior to release of the templating sphere and then adhering the ferrocene after sphere removal. The ferrocene binds selectively to streptavidin modified beta-cyclodextrin (CD-streptavidin) which is assembled prior to assembly of the DOPC/DOPC biotinylated bilayer. Application of 0.5 V vs Ag/AgCl results in oxidation of the ferrocene, which in the presence of Na+ acquires a permanent positive charge, preventing reassembly of the CD-streptavidin. The released CD-streptavidin diffuses to the bilayer where its streptavidin pendant recognises and binds to biotin. Such electrorelease can be combined with EIS to allow for the detection of interaction of released agent with the bilayer, and/or it can also be combined with spectroscopic methods, such as Raman and fluorescence spectroscopy for further investigation. […] In principle, the quantity of cholesterol removed can be controlled by altering the quantity of CD at the cavity through use of a mixed monolayer

[6] = DOPC bilayer, 2.8 um PDMS pores

CO[C@@H]1C[C@@H](C[C@H]2CC[C@H](C)[C@H]([C@@H](C)C(=O)O)O2)O[C@]2(O[C@](C)([C@H]3CC[C@@](C)([C@@H]4O[C@@H]([C@H]5O[C@@](O)(CO)[C@H](C)C[C@@H]5C)C[C@@H]4C)O3)C[C@H]2C)[C@@H]1C [Nigericin]
change of bilayer resistance after ionophore incorporation [1]: a decrease in the resistance was observed

CC(C)[C@@H]1NC(=O)[C@H](C)OC(=O)[C@@H](C(C)C)NC(=O)[C@@H](C(C)C)OC(=O)[C@H](C(C)C)NC(=O)[C@H](C)OC(=O)[C@@H](C(C)C)NC(=O)[C@@H](C(C)C)OC(=O)[C@H](C(C)C)NC(=O)[C@H](C)OC(=O)[C@@H](C(C)C)NC(=O)[C@@H](C(C)C)OC1=O [Valinomycin]
change of bilayer resistance after ionophore incorporation [2]: a decrease in the resistance was observed

O=C(O)Cc1ccccc1Nc1c(Cl)cccc1Cl [diclofenac]
decrease in resistivity of DOPC bilayer [3]: 65% | diffusion coefficient of Atto-655 labelled DOPE ([4]; 800 μmol diclofenac, DOPC bilayer, PBS pH 7.4, at 0 drug 11.71±0.82): 43.5±8.13 μm^2 s^−1 | impact on diffusion of the lipophilic BODIPY-HPC probe [4, 6]: little effect

CC(C)Cc1ccc(C(C)C(=O)O)cc1 (stereo not drawn) [ibuprofen]
decrease in resistivity of DOPC bilayer [3]: roughly 6% | effect on capacitance of the layer ([3]; ibuprofen at 4 and then 8 mMol, 2.8 μm gold cavity arrays, PBS pH 7.4): initially in a decrease followed by a substantial increase in capacitance | effect on impedance of the bilayer at equilibrium ([3]; ibuprofen at 4 and then 8 mMol, 2.8 μm gold cavity arrays, PBS pH 7.4, room temperature, ferrocyanide redox probe): decrease in impedance | diffusion coefficient of the ATTO probe (DOPE-ATTO655) ([4]; 100 μmol of ibuprofen, DOPC bilayer, PBS pH 7.4, without drug 10.37±0.72): 12.05±0.6 μm^2 s^−1 | impact on diffusion of the lipophilic BODIPY-HPC probe [4, 6]: little impact | membrane lipid diffusion coefficient after exposure of the bilayer ([4]; ibuprofen 4 mMol, DOPC bilayer with 1% mol/mol BODIPY labelled DOPE, 2.8 um PDMS pores, PBS pH 7.4, room temperature, without drug approximately 7): approximately 9.5 μms^−1

OC[C@H]1O[C@@H]2O[C@H]3[C@H](O)[C@@H](O)[C@@H](O[C@H]4[C@H](O)[C@@H](O)[C@@H](O[C@H]5[C@H](O)[C@@H](O)[C@@H](O[C@H]6[C@H](O)[C@@H](O)[C@@H](O[C@H]7[C@H](O)[C@@H](O)[C@@H](O[C@H]8[C@H](O)[C@@H](O)[C@@H](O[C@H]1[C@H](O)[C@H]2O)O[C@@H]8CO)O[C@@H]7CO)O[C@@H]6CO)O[C@@H]5CO)O[C@@H]4CO)O[C@@H]3CO [unlabeled CD, beta-cyclodextrin]
effect of electroreleased agent on cholesterol containing bilayer [5]: removal of cholesterol from the bilayer, reflected in a decrease in resistance of the bilayer film

From patent US10444244B2, “Microfluidic array supporting a lipid bilayer assembly” (DUBLIN CITY UNIVERSITY, priority 2014, dated 2019)
